Laboratory results taken from US20040067850A1, “Agricultural and horticultural composition” (priority 2001, published 2004).

Test system: Oat
Assay: Gotland field trial, foliage application: manganese deficiency assessment in oat
Type: in vivo
Conditions: 4 kg/ha, scale 0 = no deficiency, 100 = all plants
Description: Oat was grown on a location on Gotland, Sweden, with severe manganese conditions. […] The invention, MicroplanTM Manganese (150 gram manganese complex bound per liter, amino acids used were methionin and lysine, respectively), was applied to the foliage at growing stage DC 25 (early tillering). […] The same amount of manganese was applied. The assessment, shown in the table 7 below, were done one week and two weeks after application. According to the following procedure: Manganese deficiency 0-100, scale 0=no deficiency 100=all plants/leaves showing deficiency (=yellow leaves).

In the case of `O=S(=O)([O-])[O-].[Mn+2]` [Manganese sulphate], the “Manganese deficiency 0-100 (plant/leaf area with symptoms)” value (6/7-2001) is reported as 28 and the “Manganese deficiency 0-100 (plant/leaf area with symptoms)” value (16/7-2001) is reported as 25.
